Measured values reported in patent US20200223839A1, “FLUORO-CONTAINING COMPOUNDS, USE AND PREPARATION THEREOF” (JIANGSU YINGKEBEITA YIYAOKEJI CO. LTD, priority 2017, published 2020).

Experiments:
A549 = test: Cell culture and cytotoxicity assay (CTG), A549; type: cell-based; conditions: Homo sapiens, A549, exposure 72 hours
Description: (§1) The assayed compounds each was dissolved in DMSO with a final concentration of 10 mM or 40 mM and stored at −20° C. Tumor cell lines A549 (7,000 cells/well), BT474 (12,000 cells/well), MDA-MB-468 (12,000 cells/well), and HCC1937 (6,000 cells/well) were seeded on 96-well plates. And the cells were pre-incubated at 37° C./5% CO2 for 24 hours. The cells were exposed to different concentrations of the assay compounds (from 400 μM to 782 nM, from 200 μM to 391 nM, from 100 μM to 196 nM, and from 50 μM to 98 nM) for the following time:
(§2) After incubation, 100 μL from each well was discarded and CTG base (Proega, G7571, 50 μL) was added and the mixture was agitated for 2 minutes. The mixtures were stored in a dark room for 10 minutes and the viability was analyzed with Multiskan microplate reader.

[1] = test system: MDA-MB-468 cells (human breast cancer) implanted in BALB/c-nu mice; test: In vivo xenograft study, MDA-MB-468, tumor sizes; conditions: MDA-MB-468 xenograft in BALB/c-nu mice, FIGS. 2 and 4
Description: (§3) MDA-MB-468 cells (human breast cancer) in its log growth phase were implanted in BALB/c-nu mice. When the tumor volume was approximately 50-150 mm^3, the mice were randomized into four groups, each include 8 mice. The four groups were treated with vehicle, Ref. 1, 4f, and Ref. 2, respectively, and the tumor sizes were measured two to three times each week and the mice were also weighted.

Calu-6 = test: Cytotoxicity assay by the CTG method, Calu-6; type: cell-based; conditions: Homo sapiens, Calu-6, Lung cancer, 72 h
Description: (§4) The corresponding cells were harvested from flask into cell culture medium and the cell number were counted. The cells were diluted with culture medium to the desired density and 40 μL of cell suspension was added into each well of 384-well cell culture plate as designated. The plates were covered with lid and placed in room temperature for 30 minutes without shaking and then were transferred plates into 37° C. 5% CO2 incubator overnight for cell attachment.
(§5) Compound preparation and treatment: Test compounds were received or dissolved at 30 mM stock solution and control compound Staurosporine was stored as 10 mM and 1 mM concentration. 45 uL of stock solution was transferred to a 384 pp-plate. 3 fold, 10-point dilution were performed via transferring 15 uL compound into 30 μL DMSO by using TECAN (EVO200) liquid handler. The plates were spun at room temperature at 1,000 RPM for 1 minute and shaken at a plate shaker for 2 minutes. […]
(§6) The plate from incubators were placed and equilibrated at room temperature for 15 minutes. […] 40 μL of CellTiter-Glo reagent were transferred into each well to be detected (at 1:1 to culture medium). Then the plates were placed at room temperature for 30 min followed by reading on EnSpire.
(§7) The inhibition activity was calculated following the formula below: […]
(§8) The IC50 were calculated by fitting the Curve using Xlfit (v5.3.1.3): […]

LoVo = test: Cytotoxicity assay by the CTG method, LoVo; type: cell-based; conditions: Homo sapiens, Colon cancer, 72 h
Description: as §4, §5, §6, §7, §8

CaKi-1 = test: Cytotoxicity assay by the CTG method, CaKi-1; type: cell-based; conditions: Homo sapiens, CaKi-1, Kidney cancer, 72 h
Description: as §4, §5, §6, §7, §8

WM-266-4 = test: Cytotoxicity assay by the CTG method, WM-266-4; type: cell-based; conditions: Homo sapiens, WM-266-4, Melanoma, 72 h
Description: as §4, §5, §6, §7, §8

U87MG = test: Cytotoxicity assay by the CTG method, U87MG; type: cell-based; conditions: Homo sapiens, U-87 MG, Glioblastoma, 72 h
Description: as §4, §5, §6, §7, §8

[2] = In vivo xenograft study, MDA-MB-468, mice weights; conditions: MDA-MB-468 xenograft in BALB/c-nu mice, FIGS. 3 and 5
Description: as §3

A498 = test: Cytotoxicity assay by the CTG method, A498; type: cell-based; conditions: Homo sapiens, A498, Kidney cancer, 72 h
Description: as §4, §5, §6, §7, §8

PC-3 = test: Cytotoxicity assay by the CTG method, PC-3; type: cell-based; conditions: Homo sapiens, PC-3, Prostate cancer, 72 h
Description: as §4, §5, §6, §7, §8

MV-4-11 = test: Cytotoxicity assay by the CTG method, MV-4-11; type: cell-based; conditions: Homo sapiens, MV4-11, MV-4-11, Leukemia, 72 h
Description: as §4, §5, §6, §7, §8

BT474 = test: Cell culture and cytotoxicity assay (CTG), BT474; type: cell-based; conditions: Homo sapiens, BT-474, BT474, exposure 96 hours
Description: as §1, §2

MDA-MB-453 = test: Cytotoxicity assay by the CTG method, MDA-MB-453; type: cell-based; conditions: Homo sapiens, MDA-MB-453, Breast cancer, 72 h
Description: as §4, §5, §6, §7, §8

T-47D = test: Cytotoxicity assay by the CTG method, T-47D; type: cell-based; conditions: Homo sapiens, T47D, Breast cancer, 72 h
Description: as §4, §5, §6, §7, §8

SK-OV-3 = test: Cytotoxicity assay by the CTG method, SK-OV-3; type: cell-based; conditions: Homo sapiens, SK-OV-3, Ovarian cancer, 72 h
Description: as §4, §5, §6, §7, §8

MDA-MB-468 [3] = test: Cytotoxicity assay by the CTG method, MDA-MB-468; type: cell-based; conditions: Homo sapiens, MDA-MB-468, Breast cancer, 72 h
Description: as §4, §5, §6, §7, §8

Hep3B = test: Cytotoxicity assay by the CTG method, Hep3B; type: cell-based; conditions: Homo sapiens, Liver cancer, 72 h
Description: as §4, §5, §6, §7, §8

786-O = test: Cytotoxicity assay by the CTG method, 786-O; type: cell-based; conditions: Homo sapiens, 786-0, Kidney cancer, 72 h
Description: as §4, §5, §6, §7, §8

MDA-MB-468 [4] = test: Cell culture and cytotoxicity assay (CTG), MDA-MB-468; type: cell-based, human
Description: as §1, §2

[5] = test system: MDA-MB-453 cells (human breast cancer); test: In vivo mouse model, MDA-MB-453, tumor sizes; conditions: MDA-MB-453 mouse model, similar dosage (for example, 100 mg/Kg), FIG. 6
Excerpt: MDA-MB-453 cells (human breast cancer) were also studied in a mouse model. […] FIG. 7.

Cc1ccc(S(=O)(=O)Nc2nc3ccccc3nc2Nc2ccc3nsnc3c2)cc1F [Compound 4f, N-[3-(benzo[1,2,5]thiadiazol-5-ylamino)-quinoxalin-2-yl]-3-fluoro-4-methyl-benzenesulfonamide]
IC50 (A549): 25000 to 50000 nM | anticancer activity (tumor sizes) versus vehicle [1]: significant anticancer activities | IC50 (Calu-6): 4.89 µM | IC50 (LoVo): 21.7 µM | IC50 (CaKi-1): 13 µM | IC50 (WM-266-4): 9.1 µM | IC50 (U87MG): 18 µM | weight changes of mice [2]: no significant weight changes | IC50 (A498): 3.68 µM | IC50 (PC-3): 6.05 µM | IC50 (MV-4-11): 6.8 µM | IC50 (BT474): 12500 to 25000 nM | IC50 (MDA-MB-453): 1.5 µM | IC50 (T-47D): 5.74 µM | IC50 (SK-OV-3): 9.37 µM | IC50 (MDA-MB-468 [3]): 2.49 µM | IC50 (Hep3B): 3.97 µM | IC50 (786-O): 5.74 µM | IC50 (MDA-MB-468 [4]; Homo sapiens, MDA-MB-468, exposure 72 hours, CTG): 781 to 1560 nM | anticancer activity compared with known compounds (FIG. 1) (MDA-MB-468 [4]; MDA-MB-468 cytotoxicity, versus Ref. 1, Ref. 3, XL147-A, BEZ235): much better anticancer activity than any of the known compounds | anticancer activities (tumor sizes) compared with Ref. 2 [5]: better anticancer activities than Ref. 2
